# According to patent publication US20160333419A1, “GENE SIGNATURES ASSOCIATED WITH SENSITIVITY TO MDM2 INHIBITORS” (DAIICHI SANKYO COMPANY, LIMITED, priority 2014, published 2016):
# Experiments:
# Test in all cases: OncoPanel cytotoxicity assay
# Type in all cases: cell-based
# [1] = tested on: 769-P; settings: Homo sapiens, 72 hour incubation
# Protocol: (§1) Cells were grown in RPMI 1640, 10% FBS, 2 mM L-alanyl-L-Glutamine, 1 mM Na Pyruvate, or a special medium in a humidified atmosphere of 5% CO2 at 37° C. Cells were seeded into 384-well plates and incubated in a humidified atmosphere of 5% CO2 at 37° C. Test compounds were added 24 hours post cell seeding. At the same time, a time zero, untreated cell plate was generated as a control. After a 72 hour incubation period, cells were fixed and stained with nuclear dye to allow visualization of nuclei.
# (§2) Compounds were serially diluted 3.16-fold and assayed over 10 concentrations of inhibitor in a final assay concentration of 0.1% DMSO from the highest test concentration specified in the sample information chapter. Automated fluorescence microscopy was carried out using a GE Healthcare InCell Analyzer 1000, and images were collected with a 4× objective. Twelve bit tiff images were acquired using the InCell Analyzer 1000 3.2 and analyzed with Developer Toolbox 1.6 software.
# (§3) Cell proliferation was measured by the signal intensity of the incorporated nuclear dye. The cell proliferation assay output is referred to as the relative cell count. To determine the cell proliferation end point, the cell proliferation data output is transformed to percent of control (POC) using the following formula: […]
# (§4) Relative cell count IC50 (IC50) is the test compound's concentration that produces 50% of the cell proliferation inhibitory response or 50% cytotoxicity level. IC50 values were calculated using nonlinear regression to fit data to a sigmoidal 4 point, 4 parameter One-Site dose response model, where: y (fit)=A+[(B−A)/(1+((C/x)̂D))]. Curve-fitting, IC50 calculations and report generation were performed using a custom data reduction engine MathIQ based software (AIM). […] In these cases, the IC50 values were expressed as 40 μM and 10 μM, respectively (Table 2).
# [2] = tested on: A-673; settings: Homo sapiens, A673, 72 hour incubation
# Protocol: as §1, §2, §3, §4
# [3] = tested on: A204; settings: Homo sapiens, 72 hour incubation
# Protocol: as §1, §2, §3, §4
# [4] = tested on: A498; settings: Homo sapiens, 72 hour incubation
# Protocol: as §1, §2, §3, §4
# [5] = tested on: A7; settings: Homo sapiens, 72 hour incubation
# Protocol: as §1, §2, §3, §4
# [6] = tested on: AGS; settings: Homo sapiens, 72 hour incubation
# Protocol: as §1, §2, §3, §4
# [7] = tested on: ARH-77; settings: Homo sapiens, 72 hour incubation
# Protocol: as §1, §2, §3, §4
# [8] = tested on: BeWo; settings: Homo sapiens, 72 hour incubation
# Protocol: as §1, §2, §3, §4
# [9] = tested on: C32TG; settings: Homo sapiens, 72 hour incubation
# Protocol: as §1, §2, §3, §4
# [10] = tested on: CEM-C1; settings: Homo sapiens, 72 hour incubation
# Protocol: as §1, §2, §3, §4
# [11] = tested on: Calu1; settings: Homo sapiens, Calu-1, 72 hour incubation
# Protocol: as §1, §2, §3, §4
# [12] = tested on: Colo 201; settings: Homo sapiens, 72 hour incubation
# Protocol: as §1, §2, §3, §4
# [13] = tested on: D283 Med; settings: Homo sapiens, 72 hour incubation
# Protocol: as §1, §2, §3, §4
# [14] = tested on: DU145; settings: Homo sapiens, DU-145, 72 hour incubation
# Protocol: as §1, §2, §3, §4
# [15] = tested on: EB-3; settings: Homo sapiens, 72 hour incubation
# Protocol: as §1, §2, §3, §4
# [16] = tested on: EM-2; settings: Homo sapiens, 72 hour incubation
# Protocol: as §1, §2, §3, §4
# [17] = tested on: HCT-116; settings: Homo sapiens, 72 hour incubation
# Protocol: as §1, §2, §3, §4
# [18] = tested on: HEL-92-1-7; settings: Homo sapiens, HEL 92.1.7, 72 hour incubation
# Protocol: as §1, §2, §3, §4
# [19] = tested on: HT-1197; settings: Homo sapiens, HT1197, 72 hour incubation
# Protocol: as §1, §2, §3, §4
# [20] = tested on: HT-3; settings: Homo sapiens, 72 hour incubation
# Protocol: as §1, §2, §3, §4
# [21] = tested on: Hs 294T; settings: Homo sapiens, 72 hour incubation
# Protocol: as §1, §2, §3, §4
# [22] = tested on: K562; settings: Homo sapiens, 72 hour incubation
# Protocol: as §1, §2, §3, §4
# [23] = tested on: KATO III; settings: Homo sapiens, 72 hour incubation
# Protocol: as §1, §2, §3, §4
# [24] = tested on: KLE; settings: Homo sapiens, 72 hour incubation
# Protocol: as §1, §2, §3, §4
# [25] = tested on: NCI-H292; settings: Homo sapiens, 72 hour incubation
# Protocol: as §1, §2, §3, §4
# [26] = tested on: NCI-H661; settings: Homo sapiens, 72 hour incubation
# Protocol: as §1, §2, §3, §4
# [27] = tested on: NCI-H747; settings: Homo sapiens, 72 hour incubation
# Protocol: as §1, §2, §3, §4
# [28] = tested on: Raji; settings: Homo sapiens, 72 hour incubation
# Protocol: as §1, §2, §3, §4
# [29] = tested on: Ramos (RA 1); settings: Homo sapiens, 72 hour incubation
# Protocol: as §1, §2, §3, §4
# [30] = tested on: SK-MEL-28; settings: Homo sapiens, 72 hour incubation
# Protocol: as §1, §2, §3, §4
# [31] = tested on: SK-MEL-3; settings: Homo sapiens, SK-MEL3, 72 hour incubation
# Protocol: as §1, §2, §3, §4
# [32] = tested on: SK-N-AS; settings: Homo sapiens, 72 hour incubation
# Protocol: as §1, §2, §3, §4
# [33] = tested on: SNU-16; settings: Homo sapiens, 72 hour incubation
# Protocol: as §1, §2, §3, §4
# [34] = tested on: SNU-423; settings: Homo sapiens, 72 hour incubation
# Protocol: as §1, §2, §3, §4
# [35] = tested on: SW1088; settings: Homo sapiens, 72 hour incubation
# Protocol: as §1, §2, §3, §4
# [36] = tested on: SW48; settings: Homo sapiens, 72 hour incubation
# Protocol: as §1, §2, §3, §4
# [37] = tested on: SW837; settings: Homo sapiens, 72 hour incubation
# Protocol: as §1, §2, §3, §4
# [38] = tested on: T24; settings: Homo sapiens, T-24, 72 hour incubation
# Protocol: as §1, §2, §3, §4
# [39] = tested on: TE 381.T; settings: Homo sapiens, 72 hour incubation
# Protocol: as §1, §2, §3, §4
SMILES,IC50 [1],IC50 [2],IC50 [3],IC50 [4],IC50 [5],IC50 [6],IC50 [7],IC50 [8],IC50 [9],IC50 [10],IC50 [11],IC50 [12],IC50 [13],IC50 [14],IC50 [15],IC50 [16],IC50 [17],IC50 [18],IC50 [19],IC50 [20],further results
"CC[C@@H]1CNC2(CC2)CN1C(=O)[C@@H]1C[C@@H](F)CN1C(=O)C1=C(C(C)C)N2C(=N[C@@](C)(c3ccc(Cl)nc3)[C@H]2c2ccc(Cl)c(F)c2)S1 [Compound A, [(5R,6S)-5-(4-Chloro-3-fluorophenyl)-6-(6-chloropyridin-3-yl)-6-methyl-3-(propan-2-yl)-5,6-dihydroimidazo[2,1-b][1,3]thiazol-2-yl][(2S,4R)-2-{[(6R)-6-ethyl-4,7-diazaspiro[2.5]oct-7-yl]carbonyl}-4-fluoropyrrolidin-1-yl]methanone]",0.442 µM,> 40 µM,0.755 µM,1.71 µM,> 40 µM,0.139 µM,> 40 µM,1.49 µM,0.36 µM,33.6 µM,> 40 µM,34.6 µM,0.529 µM,> 40 µM,> 40 µM,> 40 µM,0.653 µM,> 40 µM,0.235 µM,> 40 µM,IC50 [21]: 1.23 µM; IC50 [22]: > 40 µM; IC50 [23]: 36.6 µM; IC50 [24]: > 40 µM; IC50 [25]: 0.479 µM; IC50 [26]: > 40 µM; IC50 [27]: > 40 µM; IC50 [28]: 13.8 µM; IC50 [29]: > 40 µM; IC50 [30]: > 40 µM; IC50 [31]: > 40 µM; IC50 [32]: > 40 µM; IC50 [33]: 28.5 µM; IC50 [34]: > 40 µM; IC50 [35]: > 40 µM; IC50 [36]: 1.09 µM; IC50 [37]: > 40 µM; IC50 [38]: > 40 µM; IC50 [39]: 37.3 µM
"CC1(C)CCC2(CC1)N[C@@H](C(=O)N[C@@H]1CC[C@@H](C(N)=O)OC1)[C@H](c1ccnc(Cl)c1F)[C@]21C(=O)Nc2cc(Cl)ccc21 [Compound B, (3′R,4′S,5′R)—N-[(3R,6S)-6-carbamoyltetrahydro-2H-pyran-3-yl]-6″-chloro-4′-(2-chloro-3-fluoropyridin-4-yl)-4,4-dimethyl-2″-oxo-1″,2″-dihydrodispiro[cyclohexane-1,2′-pyrrolidine-3′,3″-indole]-5′-carboxamide]",0.036 µM,9.21 µM,0.0294 µM,0.119 µM,3.59 µM,0.0116 µM,7.61 µM,0.317 µM,0.0329 µM,9.37 µM,> 10 µM,7.33 µM,0.0819 µM,7.91 µM,> 10 µM,> 10 µM,0.0505 µM,> 10 µM,0.135 µM,> 10 µM,IC50 [21]: 3.24 µM; IC50 [22]: > 10 µM; IC50 [23]: > 10 µM; IC50 [24]: > 10 µM; IC50 [25]: 0.0347 µM; IC50 [26]: 6.59 µM; IC50 [27]: > 10 µM; IC50 [28]: 5.32 µM; IC50 [29]: 8.66 µM; IC50 [30]: > 10 µM; IC50 [31]: > 10 µM; IC50 [32]: 8.29 µM; IC50 [33]: 9.92 µM; IC50 [34]: > 10 µM; IC50 [35]: 9.02 µM; IC50 [36]: 0.125 µM; IC50 [37]: > 10 µM; IC50 [38]: > 10 µM; IC50 [39]: 9.73 µM
